Measurements from patent publication EP4796171A2 (Zealand Pharma A/S, priority 2017, dated 2018).
Several values for one entry are separate records, joined by “and”; a condition that tells them apart may be missing. Equal entries are not always repeated.

Tests used:
[1] = Phase 2 clinical trial, PK profile of ZP1848 and metabolites in SBS patients; format: in vivo, human; conditions: for Conc.: plasma
Experimental: A phase 2 clinical trial was conducted to i.a. determine the PK profile of ZP1848 and metabolites in human SBS patients.
The study was designed as a randomized, cross-over and double-blinded with three different doses of ZP1848 (10 mg, 1 mg, 0.1 mg) in 16 SBS patients.
The 18 SBS patients (16 patients completed the study) were randomized evenly and in a double-blinded fashion to each of the six cross-over dose level combinations: 10 mg/1 mg, 10 mg/0.1 mg, 1 mg/10 mg, 1 mg/0.1 mg, 0.1 mg/10 mg, 0.1 mg/1 mg of ZP1848. The patients were injected once daily (QD) subcutaneously with the above doses of ZP1848.
Blood samples for PK analysis were collected on several study visits throughout the study period: the study comprised a 1st baseline balance study (4 days), a 1st treatment period (21 days) including a 1st treatment balance study (last 4 days of 1st treatment period), followed by a wash-out period (at least 4 weeks); and a 2nd baseline balance study (4 days), a 2nd treatment period (21 days) including a 2nd treatment balance study (last 4 days of 2nd treatment period) and a follow-up period (at least 4 weeks).
PK sampling was performed at visit 11 (1st treatment, balance study) and visit 17 (second day of 2nd baseline study - after a wash out period), and again at visit 25 (2nd treatment balance study) and at visit 29 (last day of follow-up period).
At day visit 11 and visit 25 a full PK profile in steady state was investigated. PK samples were taken prior to injection of ZP1848, and at the following time points (+/- 10 minutes) after trial product administration: 1h, 2h, 4h, 6h, 8h, 10h, 12h and 24h. Each PK sample contained 2 mL of blood, resulting in a total of […] blood drawn for PK purposes. The plasma sample was immediately stored at -80°C after sampling.
Plasma samples were analyzed after immunoaffinity extraction followed by liquid chromatography mass spectrometry (LC-MS/MS). For each patient plasma concentrations were used for calculation of the pharmacokinetic parameters using the non-compartmental approach in Excel. Plasma terminal elimination half-life (T½) was determined as In(2)/ke where ke is the magnitude of the slope of the log linear regression of the log concentration versus time profile during the terminal phase.

[2] = Phase 1 trial, PK profile of glepaglutide after SC injections in healthy subjects; format: in vivo, human; conditions: individual subjects; for Half-life of ZP2469 in the interval from 72 to 168 hours post dose: final data; for Half-life ZP2469: preliminary data
Experimental: A Phase 1 clinical trial to characterize the pharmacokinetic (PK) profiles of glepaglutide (ZP1848) and its primary active metabolites following once-weekly and once daily subcutaneous (SC) injections and after a single intravenous (IV) infusion in healthy subjects was conducted. This included evaluating the pharmacodynamic effects on plasma citrulline levels following SC dosing in healthy subjects. The trial confirmed the feasibility of dosage regimes in which GLP-2 analogues are administered to patients in weekly dosage regimes and compare weekly dosage regimes with daily dosing.
The trial design was a single-center, open-label, partially randomized, 3-part, parallel group trial to characterize the PK profile of glepaglutide administered by SC injection once daily for 7 days (Part 1), SC injection once weekly for 6 weeks (Part 2), and as a single IV infusion (Part 3) in healthy subjects.
Glepaglutide was supplied as an aqueous solution at concentrations of 2 and 10 mg/mL. • Group A: 1 mg glepaglutide once daily, given as single SC injections on Days 1 to 7. • Group B: 5 mg glepaglutide once daily, given as single SC injections on Days 1 to 7. • Group C: 5 mg glepaglutide once weekly, given as single SC injections on Days 1, 8, 15, 22, 29, and 36. • Group D: 10 mg glepaglutide once weekly, given as single SC injections on Days 1, 8, 15, 22, 29, and 36. • Group E: 1 mg glepaglutide, given as an IV infusion at a rate of 4 mg/h for 15 minutes on Day 1.
Blood samples were collected for the analysis of plasma concentrations of glepaglutide and its primary active metabolites, ZP2469 (ZP18481-34) and ZP2711 (ZP18481-35); samples were assayed using validated analytical methods. The following PK parameter estimates were calculated using standard non-compartmental methods: terminal elimination half-life (t1/2), total body clearance of drug after IV administration (CL; IV dose, parent drug only), apparent total clearance (CL/F; SC doses, parent drug only), volume of distribution at steady state (Vss; IV dose, parent drug only), apparent volume of distribution at steady state (Vss/F; SC doses, parent drug only), volume of distribution (Vz; IV dose, parent drug only), apparent volume of distribution (Vz/F; SC doses, parent drug only), maximum observed plasma concentration (Cmax), area under the plasma concentration-time curve (AUC) over a dosing interval (AUCT), AUC from time zero to infinity (AUCinf), AUC from time zero to the time of the last measurable concentration (AUClast), and time of the maximum observed plasma concentration (tmax). Metabolite exposure (based on Cmax, AUCT, and AUCinf) were determined for each group as a ratio of the 2 primary active metabolites, ZP2469 (ZP18481-34) and ZP2711 (ZP18481-35), relative to the glepaglutide parent drug.
The PK parameters estimates for glepaglutide, ZP2469 (ZP18481-34), and ZP2711 (ZP18481-35) were listed and summarized using standard descriptive statistics. The primary PK parameters are t1/2 for glepaglutide, ZP2469 (ZP18481-34), and ZP2711 (ZP18481-35); and CL (IV dose), CL/F (SC doses), Vss (IV dose), Vss/F (SC dose), Vz (IV dose), and Vz/F (SC doses) for glepaglutide. The half-life is calculated as LN(2)/ke where ÷ke is estimate from the slope of the terminal part of the LN(concentration) versus time curve, with repeats regressions of LN(concentration) values using the last three points with non-zero concentrations, then the last four points, last five points, etc. Points with a concentration value of zero are not included. Points prior to Cmax are not used. […] 2) ke must be calculated from at least three data points. 3) The estimated slope must be negative, so that its negative ke is positive. The results of the calculations carried out with preliminary data are shown in Table 4, while the results of the calculations with the complete final data set are shonw in Table 5. […]

What does the source list for “H-HGEGTFSSELATILDALAARDFIAWLIATKITDK-OH [ZP2469]”?
plasma level ([1]; in words, relative to ZP1848 after administration of ZP1848): multiple times higher than that of ZP1848; Conc. ([1]; Day 0 (visit 11 or 25, treatment balance study), ZP1848 SC once daily, individual subjects): 2220 pM and 556 pM and 3640 pM and 4750 pM and 4660 pM and 4490 pM and 1040 pM and 14700 pM and 6770 pM and 4340 pM and 4940 pM; Conc. ([1]; Day 28-56 (visit 17 or 29, after wash-out/follow-up), individual subjects): 394 pM and 52.8 pM and 56.4 pM and 288 pM and 236 pM and 195 pM and 133 pM and 209 pM and 460 pM and 116 pM and 112 pM; Half-life ([1]; terminal, from Day 0 and wash-out/follow-up concentrations, individual subjects): 5.2 days and 7.9 days and 8.7 days (2×) and 11 days (2×) and 7.2 days (2×) and 12 days and 9.5 days and 9.6 days; Half-life of ZP2469 in the interval from 72 to 168 hours post dose ([2]; Group A, 1 mg once daily, after 7 doses): 75 h and 87 h and 80 h and 54 h and 57 h; Half-life of ZP2469 in the interval from 72 to 168 hours post dose ([2]; Group B, 5 mg once daily, after 7 doses): 168 hr and 77 hr and 101 hr (2×) and 53 hr and 34 hr and 46 hr and 100 hr and 40 hr and 84 hr and 50 hr and 42 hr; Half-life of ZP2469 in the interval from 72 to 168 hours post dose ([2]; Group C, 5 mg once weekly, after 1 dose): 329 hr and 41 hr and 38 hr and 48 hr (2×) and 59 hr and 61 hr and 217 hr and 45 hr and 39 hr and 91 hr and 75 hr; Half-life of ZP2469 in the interval from 72 to 168 hours post dose ([2]; Group C, 5 mg once weekly, after 6 doses): 26 h and 35 h and 59 h and 75 h and 57 h and 43 h and 52 h and 107 h and 33 h and 68 h and 47 h and 65 h and 452 h; Half-life of ZP2469 in the interval from 72 to 168 hours post dose ([2]; Group D, 10 mg once weekly, after 1 dose): 66 hr and 54 hr and 120 hr and 36 hr and 46 hr and 35 hr and 60 hr and 26 hr and 158 hr and 53 hr and 43 hr (2×) and 33 hr and 45 hr and 38 hr; Half-life of ZP2469 in the interval from 72 to 168 hours post dose ([2]; Group D, 10 mg once weekly, after 6 doses): 60 hr (2×) and 55 hr and 74 hr and 58 hr and 70 hr and 59 hr and 30 hr and 102 hr and 53 hr and 42 hr and 48 hr and 56 hr and 17 hr; Half-life ZP2469 ([2]; Group A, 1 mg glepaglutide SC once daily, after 7 doses): 20 h and 95 h and 76 h and 36 h and 33 h and 87 h; Half-life ZP2469 ([2]; Group B, 5 mg glepaglutide SC once daily, after 7 doses): 75 h and 108 h and 209 h and 59 h and 139 h and 94 h; Half-life ZP2469 ([2]; Group C, 5 mg glepaglutide SC once weekly, after 1 dose): 38 hr (2×) and 100 hr and 17 hr and 48 hr and 20 hr; Half-life ZP2469 ([2]; Group C, 5 mg glepaglutide SC once weekly, after 6 doses): 11 h and 17 h and 16 h and 32 h and 40 h and 22 h; Half-life ZP2469 ([2]; Group D, 10 mg glepaglutide SC once weekly, after 1 dose): 52 h and 38 h and 43 h and 34 h; Half-life ZP2469 ([2]; Group D, 10 mg glepaglutide SC once weekly, after 6 doses): 60 h and 55 h and 74 h and 34 h and 58 h
